Patent US20230381142A1, “ANTILEISHMANIAL COMPOUNDS, COMPOSITIONS AND USE THEREOF” (TRUSTEES OF BOSTON UNIVERSITY, priority 2022, published 2023)
Converted amounts (≈) assume the structure as drawn.

Assays:
[1] = system: L. donovani intracellular amastigotes in B10R cells; test: UCSD L. donovani infection assay (Assay Conditions D); format: cell-based; settings: for L. donovani amastigotes EC75 (B10R cells): footnote d; for EC50 / IC50: Leishmania donovani; for L. donovani amastigotes EC75 (μM, B10R cells) / L. donovani amastigotes EC75 (B10R cells) / EC50: B10R cells; for EC50: values marked d, read-out: L. donovani amastigotes EC50 (B10R cells)
Summary of the method: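 Compounds, either single-point at 10 μM or 10-point 2-fold series (3 technical, 2 biological replicates), were incubated 72 h at 37° C. with B10R host cells co-seeded with day-7 stationary L. donovani promastigotes (20:1). DAPI-stained nuclei imaging yielded intracellular parasite EC50 and host-cell CC50.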

[2] = UCSD infection assay, host cell cytotoxicity (CC50); format: cell-based; settings: mouse, B10R host cells infected with L. donovani
Experimental: (§1) Assay Conditions D: B10R cells (CVCL_0155) were seeded at 300 cells/well, and L. donovani WT promastigotes in stationary phase (7th day after passage) were added at 6,000 parasites/well (ratio of 20 parasites/cell). Both cells and parasites were seeded in DMEM High-Glucose medium (Gibco, cat. no. 11995065) containing 5% Fetal Bovine Serum (Sigma-Aldrich, cat. no. F2442) and 1% Penicillin-Streptomycin (Gibco, cat. no. 15140122). Cells and parasites were incubated in the presence of the compounds for 72 h at 37° C. and 5% C02. Plates were then fixed with 4% formaldehyde solution for at least 1 h, then washed with 1×PBS and stained with 5 μg/mL DAPI. Plates were read using an ImageXpress microscope (Molecular Devices) and analyzed by MetaXpress software (Molecular Devices) using a custom module optimized for this assay. […] Compounds were tested in a 10-point 2-fold serial dilution in 3 technical replicates, and 2 biological replicates. After 72 h, plates were fixed and stained with DAPI as described above. Images were acquired on an ImageXpress microscope, and analyzed using the MetaXpress custom module.
as §1, with “Compounds were obtained as 0.2 μmoles of dried film for primary single point screening. Each compound was diluted in DMSO to 10 μM final testing concentration. These compounds were tested in 2 biological replicates. The compounds were pre-spotted onto 384-well assay plates in single concentration.” for “Assay Conditions D:”, “CO2.” for “C02.”, “module. The DRCs were plotted, half-effective concentration (EC50) and half-cytotoxic concentration (CC50) were calculated using GraphPad Prism Software, version 6.05 (GraphPad Software, San Diego, CA).” for “module.”

[3] = GSK inMac assay, host cell toxicity readout (LD MAC); format: cell-based, human; settings: human; footnote c; read-out: THP-1 Host Cell CC50
Summary of the method: (§2)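 MAC EC50 reflects THP-1 host cell counts, measured within GSK's inMac L. donovani infection assay that also scores intracellular amastigotes and infected-cell percentage.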

[4] = Property forecast index (PFI = ChromLogD7.4 + aromatic rings); format: physicochemical
[5] = system: host THP-1 macrophages; test: GSK inMac assay, host cell toxicity readout (LD MAC); format: cell-based, human; settings: Homo sapiens, THP-1, cytotoxicity against host THP-1 macrophages
Summary of the method: as §2

[6] = molecular target: human serum albumin (Homo sapiens, UniProt P02768); test: Human serum albumin (HSA) binding, chromatographic; format: in vitro ADME
Experimental: The percentage of compound bound to human serum albumin was measured using a chromatographic method as described. Briefly, each compound was assayed on an immobilized HSA column and gradient retention times measured, with chromatographic peak detection by UV. Each retention time was then converted to a % HSA bound value using a calibration set of compounds with a known % HSA binding.

[7] = Kinetic aqueous solubility by CLND; format: physicochemical; settings: aqueous medium (not further specified), kinetic from dmso stock, high-throughput CLND
Experimental: Solubility of compounds using ChemiLuminescent Nitrogen Detection (CLND) was measured as described. Solubility of compounds using Charged Aerosol Detection (CAD) was measured as described. Solubility of solid compounds in Fasted Simulated Intestinal Fluid (FaSSIF) was measured as described.

[8] = system: L. donovani intracellular amastigotes infecting THP-1 macrophages; test: GSK intramacrophage L. donovani assay (LD AMMAC, inMac; Assay Conditions C); format: cell-based; settings: Leishmania donovani; for IC50: THP-1; for EC50: growth inhibition of L. donovani intracellular amastigotes infecting THP-1 macrophages, read-out: LD AMMAC EC50
Summary of the method: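 EC50 values come from counting amastigotes per infected THP-1 macrophage (AMMAC). Parallel read-outs give percentage of infected cells per well (INFCELL) and a macrophage-number toxicity EC50 (MAC).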

[9] = Artificial membrane permeability (AMP); format: in vitro ADME; settings: PAMPA, pH 7.4
Summary of the method: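 Passive permeation through 1.8% phosphatidylcholine in 1% decane membrane, 50 mM phosphate buffer pH 7.4 on donor and receiver sides. After 45 min pre-shaking, compounds incubated 3 h at room temperature with shaking, in duplicate; donor and receiver solutions quantified by LC/MS.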

[10] = system: HepG2 cells; test: HepG2 cytotoxicity; format: cell-based; settings: Homo sapiens; toxicity against HepG2 cells

Chain of human serum albumin (P02768 25-609): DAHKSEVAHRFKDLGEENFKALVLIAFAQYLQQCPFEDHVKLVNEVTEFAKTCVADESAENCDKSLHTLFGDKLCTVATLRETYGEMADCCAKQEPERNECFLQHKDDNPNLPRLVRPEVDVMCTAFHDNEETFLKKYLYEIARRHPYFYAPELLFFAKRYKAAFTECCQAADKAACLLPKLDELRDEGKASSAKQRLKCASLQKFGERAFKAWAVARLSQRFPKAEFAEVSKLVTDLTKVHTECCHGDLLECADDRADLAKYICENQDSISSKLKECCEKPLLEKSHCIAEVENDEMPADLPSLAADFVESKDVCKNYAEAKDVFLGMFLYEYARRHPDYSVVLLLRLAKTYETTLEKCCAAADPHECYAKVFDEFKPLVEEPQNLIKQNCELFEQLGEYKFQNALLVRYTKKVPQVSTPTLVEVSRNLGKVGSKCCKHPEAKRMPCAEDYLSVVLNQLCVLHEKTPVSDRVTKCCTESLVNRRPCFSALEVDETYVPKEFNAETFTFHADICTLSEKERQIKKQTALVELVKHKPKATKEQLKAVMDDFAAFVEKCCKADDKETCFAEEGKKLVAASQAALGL

Q: For `CC(C)Cc1n[nH]c2c1C(c1ccc(F)cc1Cl)N(c1ccc(N3CCN(C)CC3)nc1)C2=O` (stereo not shown) [BUCMD00718], which “L. donovani amastigotes EC75 (μM, B10R cells)” value [1] is on record?
A: 1.0 µM

Q: What about the CC50 at 72 h ([2]; host B10R cells) of the same compound?
A: 6.31 µM

Q: Which “L. donovani amastigotes EC75 (μM, B10R cells)” value [1] does the source give for `CC(C)Cc1n[nH]c2c1C(c1ccc(Cl)cc1Cl)N(c1ccc(N3CCN(C)CC3)nc1)C2=O` (stereo not shown) [BUCMD00719] here?
A: >10 µM

Q: And the CC50 at 72 h ([2]; host B10R cells)?
A: 2 µM

Q: For `CC(C)Cc1n[nH]c2c1C(c1ccc(F)cc1F)N(c1ccc(N3CCN(C)CC3)nc1)C2=O` (stereo not shown) [BUCMD00722], which “L. donovani amastigotes EC75 (μM, B10R cells)” value [1] is on record?
A: >10 µM

Q: And the CC50 at 72 h ([2]; host B10R cells)?
A: 7.94 µM

Q: What does the source list for `CC(C)Cc1n[nH]c2c1C(c1ccccc1C(F)(F)F)N(c1ccc(N3CCN(C)CC3)nc1)C2=O` (stereo not shown) [BUCMD00723]?
A: L. donovani amastigotes EC75 (μM, B10R cells) [1]: 10.0 µM; CC50 at 72 h ([2]; host B10R cells): 7.94 µM

Q: Which “L. donovani amastigotes EC75 (μM, B10R cells)” value [1] does the source give for `CC(C)Cc1n[nH]c2c1C(c1ccccc1F)N(c1ccc(N3CCN(C)CC3)nc1)C2=O` (stereo not shown) [BUCMD00724] here?
A: >10 µM

Q: And the CC50 at 72 h ([2]; host B10R cells)?
A: 6.31 µM

Q: For `CC(C)Cc1n[nH]c2c1C(c1ccc(F)c(F)c1)N(c1ccc(N3CCN(C)CC3)nc1)C2=O` (stereo not shown) [BUCMD00725], which “L. donovani amastigotes EC75 (μM, B10R cells)” value [1] is on record?
A: >10 µM

Q: And the CC50 at 72 h ([2]; host B10R cells)?
A: 7.94 µM

Q: For `COc1ncc(N2C(=O)c3[nH]nc(CC(C)C)c3C2c2ccc(F)cc2Cl)cc1F` (stereo not shown) [BUCMD00730], which “L. donovani amastigotes EC75 (B10R cells)” value [1] is on record?
A: 0.6 µM

Q: And the CC50 at 72 h ([2]; footnote d)?
A: 10 µM

Q: With `C#CCCCCn1nc(CC(C)C)c2c1C(=O)N(c1ccc(OC)cc1)C2c1ccc(F)cc1` (stereo not shown) [BUCMD00741] as the compound, how does the “L. donovani amastigotes EC75 (μM, B10R cells)” value [1] read?
A: >10 µM

Q: What about the CC50 at 72 h ([2]; host B10R cells) of the same compound?
A: 10 µM

Q: What does the source list for `CC(C)Cc1n[nH]c2c1C(c1ccccc1Cl)N(c1ccc(N(C)C)cc1)C2=O` (stereo not shown) [CMLD010920]?
A: L. donovani amastigotes EC75 (B10R cells) [1]: 0.3 µM; EC50 [1]: 0.3 µM; CC50 at 72 h ([2]; footnote d): 6.31 µM; CC50 [3]: 7.3 µM

Q: With `COc1ccccc1C1c2c(CC(C)C)n[nH]c2C(=O)N1c1ccc(Br)cc1` (stereo not shown) [CMLD011549] as the compound, how does the “L. donovani amastigotes EC75 (B10R cells)” value [1] read?
A: 0.3 µM

Q: What about the EC50 [1] of the same compound?
A: 0.2 µM

Q: And the CC50 at 72 h ([2]; footnote d)?
A: 1 µM

Q: And the CC50 [3]?
A: 1.1 µM

Q: With `CC(C)Cc1n[nH]c2c1C(c1ccccc1Br)N(c1ccc(Br)cc1)C2=O` (stereo not shown) [CMLD011551] as the compound, how does the “L. donovani amastigotes EC75 (B10R cells)” value [1] read?
A: 0.5 µM

Q: And the EC50 [1]?
A: 0.4 µM

Q: What about the CC50 at 72 h ([2]; footnote d) of the same compound?
A: 6.31 µM

Q: What about the CC50 [3] of the same compound?
A: 5 µM

Q: Which results are given for `COc1ccc(N2C(=O)c3[nH]nc(CC(C)C)c3C2c2ccccc2OC)cc1F` (stereo not shown) [CMLD011566]?
A: L. donovani amastigotes EC75 (B10R cells) [1]: 0.4 µM; EC50 [1]: 0.4 µM; CC50 at 72 h ([2]; footnote d): 0.316 µM; CC50 [3]: 0.3 µM

Q: With `COc1ccc(N2C(=O)c3[nH]nc(CC(C)C)c3C2c2ccccc2OC)cn1` (stereo not shown) [CMLD011567] as the compound, how does the “L. donovani amastigotes EC75 (B10R cells)” value [1] read?
A: 1.2 µM

Q: What about the EC50 [1] of the same compound?
A: 1.1 µM

Q: And the CC50 at 72 h ([2]; footnote d)?
A: 20 µM

Q: And the CC50 [3]?
A: > 20 µM

Q: Which results are given for `COc1ccc(N2C(=O)c3[nH]nc(CC(C)C)c3C2c2ccccc2Br)cc1F` (stereo not shown) [CMLD012217]?
A: L. donovani amastigotes EC75 (B10R cells) [1]: 0.5 µM; EC50 [1]: 0.4 µM; CC50 at 72 h ([2]; footnote d): 3.98 µM; CC50 [3]: 3 µM

Q: Which IC50 [1] does the source give for `COc1ccc(N2C(=O)c3[nH]nc(CC(C)C)c3C2c2ccsc2)cc1` (stereo not shown) [Compound S3] here?
A: 4 µM

Q: What about the PFI [4] of the same compound?
A: 8.3

Q: What about the EC50 [5] of the same compound?
A: > 50 µM

Q: What about the “HSA Binding” value [6] of the same compound?
A: 95.4%

Q: And the solubility [7]?
A: 149 µM (≈ 54.8 µg/mL)

Q: And the IC50 [8]?
A: 6.3 µM

Q: And the EC50 [8]?
A: 6.3 µM

Q: And the Papp at 3 h [9]?
A: 47 ×10⁻⁶ cm/s

Q: What about the EC50 [10] of the same compound?
A: > 100 µM

Q: With `COc1ccc(N2C(=O)c3[nH]nc(CC(C)C)c3C2c2ccc(F)cn2)cc1` (stereo not shown) [Compound S10] as the compound, how does the IC50 [1] read?
A: 3.4 µM

Q: What about the PFI [4] of the same compound?
A: 7.7

Q: And the EC50 [5]?
A: > 50 µM

Q: And the “HSA Binding” value [6]?
A: 90.2%

Q: And the solubility [7]?
A: ≥ 343 µM

Q: What about the IC50 [8] of the same compound?
A: 10 µM

Q: What about the EC50 [8] of the same compound?
A: 10 µM

Q: What about the Papp at 3 h [9] of the same compound?
A: 49 ×10⁻⁶ cm/s

Q: What about the EC50 [10] of the same compound?
A: > 100 µM
